According to patent US20190084909A1, “F[…] COMPOUNDS, COMPOSITIONS AND USES THEREOF” (YISSUM RESEARCH DEVELOPMENT COMPANY OF THE HEBREW …, priority 2015, published 2019):

Tests used:
human CB2 = target: T1, human CB2 (Homo sapiens, UniProt P34972); assay: CB2 receptor binding assay, [3H]CP-55,940, membranes of transfected CHO cells
T1 construct: expressed in transfected cells; host or cells: CHO cells, stably transfected; crude membranes
Procedure: For CB1 receptor binding assay synaptosomal membranes from rat brains were used. Sabra male rats weighing ˜200 g were decapitated and their brains, without the brain stem, were quickly removed. Synaptosomal membranes were prepared from the brains by centrifugation and sucrose density gradient ultracentrifugation after their homogenization. The CB2 receptor binding assays were performed using crude membranes obtained from Chinese hamster ovary (CHO) cells stably transfected with the human CB2 cDNA.
Bound and free radioligand were separated by centrifugation (13,000 rpm for 6 min). Non-specific binding, which was determined with 50 nM unlabelled CP-55,940, was subtracted. Binding experiments were repeated 2-3 times and each point performed in triplicate. The Ki values were determined using the GraphPad Prism program (La Jolla, Calif., USA) and the Cheng-Prusoff equation.

Male Swiss mice [1] = assay: Elevated plus maze (EPM), Example 9; assay type: in vivo; conditions: 10 mg/kg ip
Procedure: (§1) Male Swiss mice (25-30 g) originated from the Central Animal Farm of the School of Medicine of Ribeirão Preto (FMRP-USP) were maintained in groups of five animals per box (41×33×17 cm) in a temperature controlled room (24±2° C.) with a 12×12 h light-dark cycle. They received water and food ad libitum throughout the study period.
(§2) Cannabidiol (CBD; THC Pharm, 15-60 mg/kg) and HU-485 (1-10 mg/kg) were administered intraperitoneally (ip). All drugs were dissolved in 2% Tween 80 in sterile saline.
The wood-made EPM was located in a sound attenuated and temperature controlled room (23° C.), with one incandescent light (40 W) placed 1.3 m away from the maze. The apparatus consisted of two opposing open arms (30×5 cm) perpendicular to two enclosed arms (30×5×40 cm), with a central platform common to all arms (5×5 cm). The apparatus was elevated 50 cm above the ground and an acrylic edge (1 cm) surrounded the open arms to prevent animal falls. […] The test lasted for 5 min and the animal behavior was analyzed with the help of the Anymaze Software (version 4.5, Stoelting), which indicated the position of the animal in the maze and calculated the percentage of entries (Peo) and time spent in the open arms (Pto) and the number of entries in the enclosed arms (EA). […]
(§3) Results were analyzed by one-way ANOVA followed by Duncan test. […]

Male Swiss mice [2] = assay: Forced swimming test (FST), Example 9; assay type: in vivo; conditions: doses of 3 and 10 mg/kg ip; p<0.05
Procedure: as §1, §2
Animals were submitted to 6 min of forced swimming in glass cylinders (height 25 cm, diameter 17 cm) containing 10 cm of water at 23-25° C. Immobility time (characterized by slow movements necessary to avoid drowning) was measured during the last 4-min period. The water was changed after each trial to prevent the influence of alarm substances (Zanelati et al., 2010). Antidepressants typically decrease immobility time in this test.
Results were analyzed by one-way ANOVA followed by Duncan test. Significant level was set at p<0.05.
Animals received an injection of vehicle (V, n=7 animals/group) or HU-485 and were tested in the EPM 20 min later. Immediately after the test they were submitted to the FST for 6 min. Data represents the means±SEM of immobility time in the FST and the % of open arm entries and time spent in these arms of the EPM. * indicates difference from V group.

Male Swiss mice [3] = assay: Pre-pulse inhibition (PPI), impairment induced by amphetamine; assay type: in vivo
Procedure: as §1, §2
The PPI test was conducted simultaneously in two identical startle response systems (Med Associates, USA). A continuous acoustic signal provided a background white noise level of 65 dB. The pulse consists of a 105 dB white noise burst with a rise/decay of 5 ms and duration of 20 ms. The pre-pulse comprised pure 7000 Hz tones, 10 ms duration, with intensities set at 80, 85, and 90 dB. The setups were daily calibrated to ensure equal sensitivity throughout the experiments. Calibration was performed by adjusting the gain on the load cell amplifier to 150 arbitrary units (AU) at a standard weight appropriated for a 40 g mice. The limits of the load cell were −2047 to +2047 AU. Thirty min after the injection of the tested compounds mice received i.p. injections of amphetamine 10 mg/kg or vehicle. […] The first 10 pulse-alone trials allow for the within-session habituation to the startle stimulus and are not considered for PPI statistical analysis. The test consisted of 64 pseudo-random trials divided into eight different groups presented with an inter-stimulus interval of 30 s, and consisting of pulse alone (105 dB), pre-pulse alone (80, 85, or 90 dB), pre-pulse+pulse with 100 ms interval between pre-pulse and pulse, and no stimulus presented. […] Mean acoustic startle response to pulse-alone (P) trials and each pre-pulse+pulse (PP+P) trial was recorded for each subject. PPI was calculated by expressing the pre-pulse+pulse startle amplitude as a percentage of decrease from pulse-alone startle amplitude, according to the following formula: % PPI=100−[100×(PP+P/P)]. This transformation reduces statistical variability attributable to differences between animals and it is a direct PPI measure. Antipsychotic drugs typically attenuate PPI impairment induced by amphetamine.
as §3
Animals received a first injection of vehicle (V) or CBD, followed 30 min later, by vehicle (n=9) or amphetamine 10 mg/kg (V+amphetamine group=9 animals). PPI was evaluated at three-stimuli intensity (90, 85 and 80 dB). […]
Animals received a first injection of vehicle (V) or HU-485, followed 30 min later, by vehicle (n=7) or amphetamine 10 mg/kg (V+amphetamine group=7 animals). PPI was evaluated at three-stimuli intensity (90, 85 and 80 dB). […]

T1 sequence (P34972 whole entry): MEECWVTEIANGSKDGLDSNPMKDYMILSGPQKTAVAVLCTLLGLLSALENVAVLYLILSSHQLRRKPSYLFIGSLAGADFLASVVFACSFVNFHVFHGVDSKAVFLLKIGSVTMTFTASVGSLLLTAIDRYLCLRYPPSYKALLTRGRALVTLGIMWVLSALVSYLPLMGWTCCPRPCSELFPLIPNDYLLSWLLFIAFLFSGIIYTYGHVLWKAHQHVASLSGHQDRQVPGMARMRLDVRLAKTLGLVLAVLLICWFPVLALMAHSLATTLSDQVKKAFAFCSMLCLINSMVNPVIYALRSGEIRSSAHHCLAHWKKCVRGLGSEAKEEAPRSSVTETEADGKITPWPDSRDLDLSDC

SMILES	Ki (human CB2)	number of enclosed arm entries (Male Swiss mice [1])	percentage of time spent in the open arms of the EPM (Male Swiss mice [1]; Duncan p<0.05)	immobility time in the FST (Male Swiss mice [2])	effect on PPI by itself (Male Swiss mice [3]; 30 mg/kg, without amphetamine)	effect on PPI impairment by amphetamine (Male Swiss mice [3]; HU-485 3, 10 and 30 mg/kg, any dose, amphetamine 10 mg/kg)
CCCCCc1cc(O)c(C2C=C(C)C(F)C[C@H]2C(C)C)c(O)c1 (stereo partly drawn) [HU-487]	4 to 5 µM	–	–	–	–	–
CCCCCc1cc(O)c(C2C=C(CF)CC[C@H]2C(C)C)c(O)c1 (stereo partly drawn) [HU-485]	–	without changing	increased	decreased	did not impair PPI	not attenuated
